{
  "source": "ChEMBL document CHEMBL4265875",
  "about": "“A comprehensive review on Aurora kinase: Small molecule inhibitors and clinical trial studies” (Eur J Med Chem, 2017)",
  "key": {"[1]": {"test_system": "SW-620", "experiment": "Growth inhibition of human SW620 cells incubated for 72 hrs by MTT assay", "type": "functional", "conditions": "SW-620, 72 h"}, "[2]": {"test_system": "A2780", "experiment": "Growth inhibition of human A2780 cells incubated for 72 hrs by MTT assay", "type": "functional", "conditions": "A2780, 72 h"}, "[3]": {"experiment": "Inhibition of CYP450 (unknown origin)", "type": "ADME, Homo sapiens"}, "[4]": {"experiment": "Growth inhibition of in human MIP101 cells incubated for 72 hrs", "type": "functional, cell-based"}, "[5]": {"experiment": "Growth inhibition of in human BON1 cells incubated for 72 hrs", "type": "functional, cell-based"}, "[6]": {"experiment": "Growth inhibition of in human QGP1 cells incubated for 72 hrs", "type": "functional, cell-based", "conditions": "QGP-1, 72 h"}, "[7]": {"biological_target": "T1, Aurora kinase A (Homo sapiens, UniProt O14965)", "T1 sequence (O14965 whole entry)": "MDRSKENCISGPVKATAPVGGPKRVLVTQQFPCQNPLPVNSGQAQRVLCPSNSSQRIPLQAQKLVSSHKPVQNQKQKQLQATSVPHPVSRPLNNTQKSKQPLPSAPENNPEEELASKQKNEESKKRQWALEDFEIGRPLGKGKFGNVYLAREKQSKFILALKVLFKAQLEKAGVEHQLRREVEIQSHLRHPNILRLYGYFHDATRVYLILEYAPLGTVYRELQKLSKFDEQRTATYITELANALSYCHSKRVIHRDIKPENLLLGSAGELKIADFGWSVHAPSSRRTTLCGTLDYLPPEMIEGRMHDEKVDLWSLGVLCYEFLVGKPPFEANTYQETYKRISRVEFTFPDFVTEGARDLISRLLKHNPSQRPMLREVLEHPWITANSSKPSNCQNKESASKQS", "experiment": "Inhibition of Aurora A kinase (unknown origin)"}, "[8]": {"biological_target": "Aurora kinase B (Homo sapiens, UniProt Q96GD4)", "sequence (Q96GD4 whole entry)": "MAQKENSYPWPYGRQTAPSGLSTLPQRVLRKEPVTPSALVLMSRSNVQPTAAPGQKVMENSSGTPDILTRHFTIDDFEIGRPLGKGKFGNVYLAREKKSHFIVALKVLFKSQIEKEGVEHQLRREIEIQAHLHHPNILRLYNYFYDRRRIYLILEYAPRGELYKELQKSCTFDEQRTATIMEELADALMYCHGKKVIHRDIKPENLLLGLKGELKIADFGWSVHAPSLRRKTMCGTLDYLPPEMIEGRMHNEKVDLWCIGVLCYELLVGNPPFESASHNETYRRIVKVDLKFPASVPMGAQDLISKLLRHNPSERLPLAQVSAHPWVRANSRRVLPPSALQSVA", "experiment": "Inhibition of recombinant aurora B (unknown origin)"}, "[9]": {"biological_target": "T1, Aurora kinase A", "experiment": "Inhibition of recombinant aurora 2 (unknown origin) expressed in Sf21 insect cells incubated for 60 mins using [biotin LRRWSLGLRRWSLGLRRWSLGLRRWSLG substrate and [gamma33P]ATP by beta plate counting method"}, "[10]": {"test_system": "KCL-22", "experiment": "Induction of apoptosis in human KCL22 cells by Annexin V staining based assay", "type": "functional, cell-based"}, "[11]": {"test_system": "HeLa", "experiment": "Growth inhibition of human HeLa cells by XTT assay", "type": "functional, cell-based"}, "[12]": {"test_system": "HCT-116", "experiment": "Growth inhibition of human HCT116 cells by XTT assay", "type": "functional, cell-based"}, "[13]": {"test_system": "HT-29", "experiment": "Growth inhibition of human HT-29 cells by XTT assay", "type": "functional, cell-based"}, "[14]": {"biological_target": "Aurora kinase B/Inner centromere protein (Homo sapiens) (UniProt Q96GD4+Q9NQS7)", "description": "Inhibition of human Aurora B/INCENP assessed as dissociation half life pre-incubated for 30 mins before 5-FAM-PKAtide substrate addition and measured after 120 mins"}, "[15]": {"test_system": "HCT-116", "experiment": "Antitumor activity against human HCT116 cells xenografted in nude mouse assessed as reduction in tumor size at 2 mg/kg/hr", "type": "functional, organism-based", "parameters": "scale not given: the % may be the effect or the level left"}, "[16]": {"test_system": "HL-60", "experiment": "Antitumor activity against human HL60 cells xenografted in nude mouse assessed as reduction in tumor size at 75 mg/kg, ip bid for 13 days", "type": "functional, organism-based", "parameters": "scale not given: the % may be the effect or the level left"}, "[17]": {"test_system": "MM1.S", "experiment": "Antitumor activity against human MM1S cells xenografted in gamma-irradiated CB17 SCID mouse assessed as inhibition of tumor growth at 15 mg/kg, po dosed daily for 21 days", "type": "functional", "conditions": "light or radiation study, 504 h, read-out: TGI"}, "[18]": {"experiment": "Suppression of cell mitosis in human multiple myeloma cells", "type": "functional"}, "[19]": {"test_system": "MM1.S", "experiment": "Antitumor activity against human MM1S cells xenografted in gamma-irradiated CB17 SCID mouse assessed as inhibition of tumor growth at 30 mg/kg, po dosed daily for 21 days", "type": "functional", "conditions": "light or radiation study, 504 h, read-out: TGI"}, "[20]": {"experiment": "Half life in fasted monkey at 2 mg/kg administered as single dose by orogastric gavage by LC-MS/MS analysis", "type": "ADME, organism-based, Macaca mulatta", "conditions": "rhesus monkey, in vivo, po"}, "[21]": {"experiment": "Half life in fasted rat at 5 mg/kg administered as single dose by orogastric gavage by LC-MS/MS analysis", "type": "ADME, organism-based", "conditions": "in vivo, po"}, "[22]": {"experiment": "Oral bioavailability in fasted monkey at 2 mg/kg administered as single dose by orogastric gavage by LC-MS/MS analysis", "type": "ADME, organism-based, Macaca mulatta", "conditions": "rhesus monkey, in vivo"}, "[23]": {"experiment": "Oral bioavailability in fasted mouse at 5 mg/kg administered as single dose by orogastric gavage by LC-MS/MS analysis", "type": "ADME, organism-based", "conditions": "in vivo"}, "[24]": {"experiment": "Half life in fasted mouse at 5 mg/kg administered as single dose by orogastric gavage by LC-MS/MS analysis", "type": "ADME, organism-based", "conditions": "in vivo, po"}, "[25]": {"experiment": "Oral bioavailability in fasted rat at 5 mg/kg administered as single dose by orogastric gavage by LC-MS/MS analysis", "type": "ADME, organism-based", "conditions": "in vivo"}, "[26]": {"experiment": "Oral bioavailability in fasted dog at 2 mg/kg administered as single dose by orogastric gavage by LC-MS/MS analysis", "type": "ADME, organism-based, Canis lupus familiaris", "conditions": "in vivo"}, "[27]": {"experiment": "Half life in fasted dog at 2 mg/kg administered as single dose by orogastric gavage by LC-MS/MS analysis", "type": "ADME, organism-based, Canis lupus familiaris", "conditions": "in vivo, po"}, "[28]": {"biological_target": "Aurora kinase C (Homo sapiens, UniProt Q9UQB9)", "sequence (Q9UQB9 whole entry)": "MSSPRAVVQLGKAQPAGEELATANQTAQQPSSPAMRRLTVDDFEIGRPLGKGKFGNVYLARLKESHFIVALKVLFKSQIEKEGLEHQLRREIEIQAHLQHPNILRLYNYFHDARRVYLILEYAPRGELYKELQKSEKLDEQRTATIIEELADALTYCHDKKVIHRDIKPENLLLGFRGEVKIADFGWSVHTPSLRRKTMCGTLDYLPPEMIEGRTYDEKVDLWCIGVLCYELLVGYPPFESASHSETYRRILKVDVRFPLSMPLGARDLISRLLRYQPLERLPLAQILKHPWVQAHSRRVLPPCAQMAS", "experiment": "Inhibition of Aurora C kinase (unknown origin)"}},
  "data": [
    {"smiles": "Cc1cc(CN2CCN(c3c(Br)cnc4nc(-c5ccc(N6CCN(C)CC6)cc5)[nH]c34)CC2)no1", "values": [
      {"measurement": "GI50", "setting": "[1]", "value": 140, "unit": "nM"},
      {"measurement": "GI50", "setting": "[2]", "value": 300, "unit": "nM"},
      {"measurement": "IC50", "setting": "[3]", "value": "> 10000", "unit": "nM"}
    ]},
    {"smiles": "COc1cc2c(Nc3ccc(NC(=O)c4ccccc4)cc3)ncnc2cc1OCCCN1CCOCC1", "values": [
      {"measurement": "IC50", "setting": "[4]", "value": 3000, "unit": "nM"},
      {"measurement": "IC50", "setting": "[5]", "value": 3000, "unit": "nM"},
      {"measurement": "IC50", "setting": "[6]", "value": 900, "unit": "nM"}
    ]},
    {"smiles": "O=C1c2[nH]c3cc(-c4ccco4)nn3c(=O)c2CN1Cc1ccccc1", "values": [
      {"measurement": "IC50", "setting": "[7]", "value": 560, "unit": "nM"}
    ]},
    {"smiles": "COc1cc2c(Nc3ccc(C(=O)Nc4ccccc4)cc3)ncnc2cc1O", "values": [
      {"measurement": "IC50", "setting": "[8]", "value": 41, "unit": "nM"},
      {"measurement": "IC50", "setting": "[9]", "value": 60, "unit": "nM"}
    ]},
    {"smiles": "CCN1CCN(C(=O)Cc2ccc(Nc3ncc(F)c(Nc4ccc(C(=O)Nc5ccccc5Cl)cc4)n3)cc2)CC1", "values": [
      {"measurement": "IC50", "setting": "[10]", "value": 5000, "unit": "nM"},
      {"measurement": "IC50", "setting": "[11]", "value": 416, "unit": "nM"},
      {"measurement": "IC50", "setting": "[12]", "value": "190 to 378", "unit": "nM"},
      {"measurement": "IC50", "setting": "[13]", "value": 5600, "unit": "nM"}
    ]},
    {"smiles": "CCn1cc(-c2ccnc3[nH]c(-c4cccc(CN(C)C)c4)cc23)c(-c2ccc(NC(=O)N(C)C)cc2)n1", "values": [
      {"measurement": "T1/2", "setting": "[14]", "value": 8, "unit": "h"}
    ]},
    {"smiles": "Cc1cc(Nc2cc(N3CCN(C)CC3)nc(Sc3ccc(NC(=O)C4CC4)cc3)n2)n[nH]1", "values": [
      {"measurement": "Activity", "setting": "[15]", "value": 56, "unit": "%"},
      {"measurement": "Activity", "setting": "[16]", "value": 98, "unit": "%"}
    ]},
    {"smiles": "COc1cc(Nc2ncc3c(n2)-c2ccc(Cl)cc2C(c2c(F)cccc2OC)=NC3)ccc1C(=O)O", "note": "[ALISERTIB]", "values": [
      {"measurement": "inhibition in vivo at 15 mg/kg", "setting": "[17]", "value": 42, "unit": "%"},
      {"measurement": "IC50", "setting": "[18]", "value": "3 to 1710", "unit": "nM"},
      {"measurement": "inhibition in vivo at 30 mg/kg", "setting": "[19]", "value": 80, "unit": "%"}
    ]},
    {"smiles": "Cc1csc(-c2nnc(Nc3ccc(Oc4ncccc4-c4ccnc(N)n4)cc3)c3ccccc23)c1", "note": "[AMG-900]", "values": [
      {"measurement": "IC50", "setting": "[8]", "value": 4, "unit": "nM"},
      {"measurement": "half-life", "setting": "[20]", "value": "0.6 to 2.4", "unit": "h"},
      {"measurement": "half-life", "setting": "[21]", "value": "0.6 to 2.4", "unit": "h"},
      {"measurement": "bioavailability", "setting": "[22]", "value": "31 to 107", "unit": "%"},
      {"measurement": "bioavailability", "setting": "[23]", "value": "31 to 107", "unit": "%"},
      {"measurement": "half-life", "setting": "[24]", "value": "0.6 to 2.4", "unit": "h"},
      {"measurement": "bioavailability", "setting": "[25]", "value": "31 to 107", "unit": "%"},
      {"measurement": "bioavailability", "setting": "[26]", "value": "31 to 107", "unit": "%"},
      {"measurement": "half-life", "setting": "[27]", "value": "0.6 to 2.4", "unit": "h"},
      {"measurement": "IC50", "setting": "[28]", "value": 1, "unit": "nM"}
    ]}
  ]
}
